Measured values: patent US9708314B2, “Heterocyclic amide compound” (NISSAN CHEMICAL INDUSTRIES, LTD., priority 2013, dated 2017)

Columns and labels:
Assay type in all cases: in vivo
[1] = test system: Echinochloa oryzacola Vasing.; assay: Test Example 1: herbicidal activity, application before weed generation in submerged conditions; settings: Application herbicide amount 320 g/ha; Seventeenth Table
Method in brief: (§1)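 Water-diluted emulsion formulation is applied onto flood water (4 cm deep) covering alluvial soil on the day weed seeds are sown, after transplanting 2.5 leaf stage rice. Rates are expressed per hectare. Injury or control is graded 0–5 three weeks later.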

Monochoria vaginalis = assay: as above; settings: Application herbicide amount 320 g/ha; Seventeenth Table
Method in brief: as §1

Scirpus juncoides = assay: as above; settings: Application herbicide amount 320 g/ha; Seventeenth Table
Method in brief: as §1

Cyperus difformis = assay: Test Example 3: herbicidal effect by application to foliage (Wagner pot, water depth 0.1-0.5 cm); settings: Nineteenth Table; application herbicide amount 320 g/ha
Method in brief: (§2)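 Post-emergence foliar application at a stated g/ha rate to plants grown 14 days from seed in alluvial soil, greenhouse 25–30 °C. Visual score after 3 weeks: 0 (≤5% effect) through 5 (≥90%).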

[2] = test system: Echinochloa crus-galli var. crus-galli; assay: as above; settings: Nineteenth Table; application herbicide amount 320 g/ha
Method in brief: as §2

Leptochloa chinensis = assay: as above; settings: Nineteenth Table; application herbicide amount 320 g/ha
Method in brief: as §2

[3] = test system: directly sowed Oryza sativa; assay: Test Example 3: effect on crop by application to foliage (Wagner pot, water depth 0.1-0.5 cm); settings: Nineteenth Table; application herbicide amount 320 g/ha
Method in brief: as §2

Digitaria ciliaris = assay: Test Example 4: herbicidal effect by application to foliage (diluvial soil, plastic box); settings: application to foliage, application herbicide amount 320 g/ha
Method in brief: (§3)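 Greenhouse plants (25° C. to 30° C., 14 d, diluvial soil) receive a foliar spray of water-diluted emulsifiable formulation at defined g/ha. Grading after 3 weeks uses a six-step herbicidal-ratio scale, with 4 covering 70% to <90% and 1 covering 5% to <20%.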

Galium spurium = assay: as above; settings: application to foliage, application herbicide amount 320 g/ha
Method in brief: as §3

## Cc1nnc(NC(=O)c2ccc(C(F)(F)F)n3c(C[S+]([O-])CC(F)(F)F)nnc23)o1 (stereo not drawn) [1-038]
[1]
  A: Echinochloa oryzicola Vasing. (herbicidal effect grade): 2 (Herbicidal ratio of 20% or more and less than 40%)
Monochoria vaginalis
  C: Monochoria vaginalis (herbicidal effect grade): 1 (Herbicidal ratio of 5% or more and less than 20%)
Scirpus juncoides
  B: Scirpus juncoides (herbicidal effect grade): 2 (Herbicidal ratio of 20% or more and less than 40%)
Cyperus difformis
  E (Cyperus difformis) herbicidal ratio grade: 4 (Herbicidal ratio of 70% or more and less than 90%)
[2]
  H (Echinochloa crus-galli var. crus-galli) herbicidal ratio grade: 5 (Herbicidal ratio of 90% or more (almost completely withered))
Leptochloa chinensis
  D (Leptochloa chinensis) herbicidal ratio grade: 5 (Herbicidal ratio of 90% or more (almost completely withered))
[3]
  b (directly sowed Oryza sativa) effect on crop grade: 2 (Herbicidal ratio of 20% or more and less than 40%)
Digitaria ciliaris
  F (Digitaria ciliaris) herbicidal effect: 5 (Herbicidal ratio of 90% or more (almost completely withered))
Galium spurium
  Q (Galium spurium) herbicidal effect: 3 (Herbicidal ratio of 40% or more and less than 70%)

## Cc1nnc(NC(=O)c2ccc(C(F)(F)F)n3c(S(C)(=O)=O)nnc23)o1 [1-040]
[1]
  A: Echinochloa oryzicola Vasing. (herbicidal effect grade): 3 (Herbicidal ratio of 40% or more and less than 70%)
Monochoria vaginalis
  C: Monochoria vaginalis (herbicidal effect grade): 3 (Herbicidal ratio of 40% or more and less than 70%)
Scirpus juncoides
  B: Scirpus juncoides (herbicidal effect grade): 3 (Herbicidal ratio of 40% or more and less than 70%)
Cyperus difformis
  E (Cyperus difformis) herbicidal ratio grade: 4 (Herbicidal ratio of 70% or more and less than 90%)
[2]
  H (Echinochloa crus-galli var. crus-galli) herbicidal ratio grade: 4 (Herbicidal ratio of 70% or more and less than 90%)
Leptochloa chinensis
  D (Leptochloa chinensis) herbicidal ratio grade: 5 (Herbicidal ratio of 90% or more (almost completely withered))
[3]
  b (directly sowed Oryza sativa) effect on crop grade: 3 (Herbicidal ratio of 40% or more and less than 70%)
Digitaria ciliaris
  F (Digitaria ciliaris) herbicidal effect: 5 (Herbicidal ratio of 90% or more (almost completely withered))
Galium spurium
  Q (Galium spurium) herbicidal effect: 3 (Herbicidal ratio of 40% or more and less than 70%)

## CCS(=O)(=O)c1nnc2c(C(=O)Nc3nnc(C)o3)ccc(C(F)(F)F)n12 [1-041]
[1]
  A: Echinochloa oryzicola Vasing. (herbicidal effect grade): 3 (Herbicidal ratio of 40% or more and less than 70%)
Monochoria vaginalis
  C: Monochoria vaginalis (herbicidal effect grade): 3 (Herbicidal ratio of 40% or more and less than 70%)
Scirpus juncoides
  B: Scirpus juncoides (herbicidal effect grade): 3 (Herbicidal ratio of 40% or more and less than 70%)
Cyperus difformis
  E (Cyperus difformis) herbicidal ratio grade: 5 (Herbicidal ratio of 90% or more (almost completely withered))
[2]
  H (Echinochloa crus-galli var. crus-galli) herbicidal ratio grade: 4 (Herbicidal ratio of 70% or more and less than 90%)
Leptochloa chinensis
  D (Leptochloa chinensis) herbicidal ratio grade: 5 (Herbicidal ratio of 90% or more (almost completely withered))
[3]
  b (directly sowed Oryza sativa) effect on crop grade: 2 (Herbicidal ratio of 20% or more and less than 40%)
Digitaria ciliaris
  F (Digitaria ciliaris) herbicidal effect: 5 (Herbicidal ratio of 90% or more (almost completely withered))
Galium spurium
  Q (Galium spurium) herbicidal effect: 3 (Herbicidal ratio of 40% or more and less than 70%)

## Cc1ccc(-c2nnc3c(C(=O)Nc4nnc(C)o4)ccc(C(F)(F)F)n23)cc1 [1-043]
[1]
  A: Echinochloa oryzicola Vasing. (herbicidal effect grade): 5 (Herbicidal ratio of 90% or more (almost completely withered))
Monochoria vaginalis
  C: Monochoria vaginalis (herbicidal effect grade): 3 (Herbicidal ratio of 40% or more and less than 70%)
Scirpus juncoides
  B: Scirpus juncoides (herbicidal effect grade): 3 (Herbicidal ratio of 40% or more and less than 70%)
Cyperus difformis
  E (Cyperus difformis) herbicidal ratio grade: 5 (Herbicidal ratio of 90% or more (almost completely withered))
[2]
  H (Echinochloa crus-galli var. crus-galli) herbicidal ratio grade: 5 (Herbicidal ratio of 90% or more (almost completely withered))
Leptochloa chinensis
  D (Leptochloa chinensis) herbicidal ratio grade: 4 (Herbicidal ratio of 70% or more and less than 90%)
[3]
  b (directly sowed Oryza sativa) effect on crop grade: 5 (Herbicidal ratio of 90% or more (almost completely withered))
Digitaria ciliaris
  F (Digitaria ciliaris) herbicidal effect: 4 (Herbicidal ratio of 70% or more and less than 90%)
Galium spurium
  Q (Galium spurium) herbicidal effect: 3 (Herbicidal ratio of 40% or more and less than 70%)

## Cc1nnc(NC(=O)c2ccc(C(F)(F)F)n3c(-c4ccc(F)cc4)nnc23)o1 [1-044]
[1]
  A: Echinochloa oryzicola Vasing. (herbicidal effect grade): 5 (Herbicidal ratio of 90% or more (almost completely withered))
Monochoria vaginalis
  C: Monochoria vaginalis (herbicidal effect grade): 3 (Herbicidal ratio of 40% or more and less than 70%)
Scirpus juncoides
  B: Scirpus juncoides (herbicidal effect grade): 3 (Herbicidal ratio of 40% or more and less than 70%)
Cyperus difformis
  E (Cyperus difformis) herbicidal ratio grade: 4 (Herbicidal ratio of 70% or more and less than 90%)
[2]
  H (Echinochloa crus-galli var. crus-galli) herbicidal ratio grade: 5 (Herbicidal ratio of 90% or more (almost completely withered))
Leptochloa chinensis
  D (Leptochloa chinensis) herbicidal ratio grade: 4 (Herbicidal ratio of 70% or more and less than 90%)
[3]
  b (directly sowed Oryza sativa) effect on crop grade: 3 (Herbicidal ratio of 40% or more and less than 70%)
Digitaria ciliaris
  F (Digitaria ciliaris) herbicidal effect: 4 (Herbicidal ratio of 70% or more and less than 90%)
Galium spurium
  Q (Galium spurium) herbicidal effect: 3 (Herbicidal ratio of 40% or more and less than 70%)
